Our source for the IC50 values is patent publication US20130164259A1, “1,4-S[…] DERIVATIVES AND METHODS OF USE THEREOF” (priority 2009, published 2013).

The experiment has as its target T1, HCV NS5B polymerase (NS5BΔCT21) (Hepatitis C virus genotype 1b, UniProt Q9WMX2).
T1 construct: A soluble C-terminal 21-amino acid truncated NS5B enzyme form; polyhistidine (C); made in house; host or cells: Escherichia coli
Nature of the experiment: HCV NS5B Polymerase Inhibition Assay. The experiment is classed as biochemical, HCV-Con 1 isolate. The source says:
A chemically synthesized 75-mer version, designated DCoH75, whose sequence matches the 3′-end of D-RNA, and DCoH75ddC, where the 3′-terminal cytidine of DCoH75 is replaced by dideoxycytidine, were used for assaying the NS5B enzyme activity as described in Ferrari et al., 12th International Symposium on HCV and Related Viruses, P-306 (2005). The sequence of the template RNA was: 5′-UGUGCCGGUCUUUCUGAACGGGAUAUAAACCUGGCCAGCUUCAUCGAACAAGUUGCCGUGUCUAUGACAUAGAUC-3′ (SEQ ID NO: 1). A soluble C-terminal 21-amino acid truncated NS5B enzyme form (NS5BΔCT21, from HCV-Con 1 isolate, genotype 1b, Genbank accession number AJ238799) was produced and purified from Escherichia coli as C-terminal polyhistidine-tagged fusion protein as described in Ferrari et al., J. Virol. 73:1649-1654 (1999). A typical assay contained 20 mM Hepes pH 7.3, 10 mM MgCl2, 60 mM NaCl, 100 μg/ml BSA, 20 units/ml RNasin, 7.5 mM DTT, 0.1 μM ATP/GTP/UTP, 0.026 μM CTP, 0.25 mM GAU, 0.03 μM RNA template, 20 μCi/ml [^33P]-CTP, 2% DMSO, and 30 or 150 nM NS5B enzyme. Reactions were incubated at 22° C. for 2 hours, then stopped by adding 150 mM EDTA, washed in DE81 filter plate in 0.5M di-basic sodium phosphate buffer, pH 7.0, and counted using Packard TopCount after the addition of scintillation cocktail. Polynucleotide synthesis was monitored by the incorporation of radiolabeled CTP. The effect of the Compounds of Formula (I) on the polymerase activity was evaluated by adding various concentrations of a Compound of Formula (I), typically in 10 serial 2-fold dilutions, to the assay mixture. The starting concentrations ranged from 200 μM to 1 μM. An IC50 value for the inhibitor, defined as the compound concentration that provides 50% inhibition of polymerase activity, was determined by fitting the cpm data to the Hill equation Y=100/(1+10̂((LogIC50−X)*HillSlope)), where X is the logarithm of compound concentration, and Y is the % inhibition. Ferrari et al., 12th International Symposium on HCV and Related Viruses, P-306 (2005) described in detail this assay procedure. It should be noted that such an assay as described is exemplary and not intended to limit the scope of the invention. The skilled practitioner can appreciate that modifications including but not limited to RNA template, primer, nucleotides, NS5B polymerase form, buffer composition, can be made to develop similar assays that yield the same result for the efficacy of the compounds and compositions described in the invention.
NS5B polymerase inhibition data was calculated for the compounds of the present invention using this method and is set forth in the table below.

The structures appear in SMILES notation.

As a reminder, the IC50 is the point on the concentration scale where inhibition reaches its midpoint. As to `Cc1ncccc1C(=O)Nc1ccc(C(C)C)cc1N1CCN(c2ncnc3[nH]ccc23)CC1` [Compound 60], the IC50 turned out to be 0.032 µM. As for `CC(C)c1ccc(NC(=O)c2cccnc2)c(N2CCN(C(=O)Nc3ccccc3)CC2)c1` [Compound 52], the figure is > 100 µM; as for `CC(C)c1ccc(NC(=O)c2ccc(C(F)(F)F)nc2)c(N2CCN(c3cnccn3)CC2)c1` [Compound 25], 2.3 µM; as for `Cc1c(F)cccc1C(=O)Nc1ccc(C(C)C)cc1N1CCN(c2cnccn2)CC1` [Compound 13], 4.1 µM. As for `CCOC(=O)c1ccc(NC(=O)c2cccnc2)c(N2CCN(c3cnccn3)CC2)c1` [Compound 69], the IC50 was > 5 µM. As for `Cc1cnc(C(=O)Nc2ccc(C(C)C)cc2N2CCN(c3cnccn3)CC2)cn1` [Compound 36], the figure is > 20 µM.

For `O=C(Nc1ccc(I)cc1N1CCN(c2cnccn2)CC1)c1cccnc1` [Compound 70], the IC50 was found to be 13 µM. `CC(C)c1ccc(NC(=O)c2cccc(O)n2)c(N2CCN(c3cnccn3)CC2)c1` [Compound 9] had an IC50 of 46 µM. Against the preceding molecule, the IC50 is about 3.5-fold higher. As for `Cc1nc(N(C)C)sc1C(=O)Nc1ccc(C(C)C)cc1N1CCN(c2cnccn2)CC1` [Compound 22], the figure is 10 µM; as for `Cc1nccc(N2CCN(c3cc(C(C)C)ccc3NC(=O)c3cccnc3)CC2)n1` [Compound 42], 0.16 µM. Take `CC(C)c1ccc(NC(=O)c2cccnc2-c2ccccc2)c(N2CCN(c3cnccn3)CC2)c1` [Compound 5]: the IC50 was > 200 µM. As for `CC(C)c1ccc(NC(=O)c2cccnc2)c(N2CCN(c3ccccn3)CC2)c1` [Compound 51], the figure is 7.3 µM; as for `CC(C)c1ccc(NC(=O)c2cccc(F)c2)c(N2CCN(c3cnccn3)CC2)c1` [Compound 12], 1 µM; as for `CC(C)c1ccc(NC(=O)c2cccnc2)c(N2CCN(c3ccncn3)CC2)c1` [Compound 41], 0.56 µM. Then `CC(C)c1ccc(NC(=O)c2cccnc2O)c(N2CCN(c3cnccn3)CC2)c1` [Compound 10], with 3 µM; and `Cc1ccnc(N2CCN(c3cc(C(C)C)ccc3NC(=O)c3cccnc3)CC2)n1` [Compound 44], with 1.5 µM; and `O=C(Nc1ccc(Br)cc1N1CCN(c2cnccn2)CC1)c1cccnc1` [Compound 65], with > 20 µM.

As for `C=C(C)c1ncccc1C(=O)Nc1ccc(C(C)C)cc1N1CCN(c2cnccn2)CC1` [Compound 4], the IC50 was > 200 µM. As for `COc1ncccc1C(=O)Nc1ccc(C(C)C)cc1N1CCN(c2cnccn2)CC1` [Compound 11], the figure is > 20 µM; as for `Cc1cncc(C(=O)Nc2ccc(C(C)C)cc2N2CCN(c3cnccn3)CC2)c1` [Compound 18], 2.3 µM; as for `Cc1ncccc1C(=O)Nc1ccc(C(C)C)cc1N1CCN(c2cncc(-c3ccccc3)n2)CC1` [Compound 62], 17 µM.

With `Cc1ncoc1C(=O)Nc1ccc(C(C)C)cc1N1CCN(c2cnccn2)CC1` [Compound 28], the IC50 amounted to 14 µM.

`CNCC(=O)N1CCN(c2cc(C(C)C)ccc2NC(=O)c2cccnc2)CC1` [Compound 56]: the IC50 is > 200 µM.

`CC(C)c1ccc(NC(=O)c2cccnc2)c(N2CCN(c3cnccn3)CC2)c1` [Compound 1] displayed an IC50 of 3 µM. Then `Cc1c(F)cc(F)cc1C(=O)Nc1ccc(C(C)C)cc1N1CCN(c2cnccn2)CC1` [Compound 14], with 0.54 µM; and `Cc1ncccc1C(=O)Nc1ccc(C(C)C)cc1N1CCN(c2ccncn2)CC1` [Compound 57], with 0.1 µM. As for `CC(C)c1ccc(NC(=O)c2ccnc(NC(=O)C(C)(C)C)c2)c(N2CCN(c3cnccn3)CC2)c1` [Compound 37], the figure is > 20 µM. For `CC(C)c1ccc(NC(=O)c2cccnc2)c(N2CCN(C(=O)OC(C)(C)C)CC2)c1` [Compound 53], the IC50 is > 200 µM.

`Cc1occc1C(=O)Nc1ccc(C(C)C)cc1N1CCN(c2cnccn2)CC1` [Compound 29] yielded an IC50 of 15 µM. `CC(C)c1ccc(NC(=O)C2CCOCC2)c(N2CCN(c3cnccn3)CC2)c1` [Compound 31]: the IC50 is > 20 µM. Then `CC(C)c1ccc(NC(=O)c2cccnc2N)c(N2CCN(c3cnccn3)CC2)c1` [Compound 8], with 1 µM; and `Cc1c(F)cc(C(=O)Nc2ccc(C(C)C)cc2N2CCN(c3cnccn3)CC2)cc1F` [Compound 16], with 5.6 µM; and `CC(C)c1ccc(NC(=O)c2cccnc2)c(N2CCN(S(C)(=O)=O)CC2)c1` [Compound 54], with > 200 µM.

Consider `CC(C)c1ccc(NC(=O)c2ccnnc2)c(N2CCN(c3cnccn3)CC2)c1` [Compound 35], for which the IC50 was > 20 µM. Then `CC(C)c1ccc(NC(=O)c2cccnc2)c(N2CCN(C(=O)CN(C)C)CC2)c1` [Compound 55], with > 200 µM; and `Cc1nc(Br)sc1C(=O)Nc1ccc(C(C)C)cc1N1CCN(c2cnccn2)CC1` [Compound 21], with 3 µM; and `CSCc1nccc(N2CCN(c3cc(C(C)C)ccc3NC(=O)c3cccnc3C)CC2)n1` [Compound 58], with 0.027 µM. As for `CC(C)c1ccc(NC(=O)c2cccnc2)c(N2CCN(c3nccs3)CC2)c1` [Compound 47], the figure is 2.5 µM.
